We go through ten compounds from ChEMBL document CHEMBL1221163, “Monocarboxylate transporter MCT1 is a target for immunosuppression” (Nat Chem Biol, 2005).

Active and inactive are the calls of the source. The rule behind the calls is not given here.

The test system of test [1] is T-cell. Briefly: Inhibition of DNA synthesis in PMA-ionomycin stimulated human T cells after 4 hrs by [3H]thymidine incorporation assay. It is filed as functional, cell-based. A general note: Uptake of a labelled nucleoside into DNA is a usual measure of proliferation.
Test [2] deals with T-cell. Nature of the test: Reduction in extracellular lactate production in PMA-ionomycin stimulated human T cells after 4 hrs. In kind it is functional, cell-based.
For test [3], the system named is T-cell. Nature of the test: Increase in intracellular lactate production in PMA-ionomycin stimulated human T cells after 4 hrs. In kind it is functional, cell-based.
Test [4] in a line: Antiproliferative activity against human T cells assessed as inhibition of PMA-ionomycin stimulated cell proliferation after 3 days by [3H]thymidine incorporation assay. It is filed as functional, cell-based.
Test [5] addresses T1, Monocarboxylate transporter 1 (Homo sapiens, UniProt P53985).
T1 sequence (P53985 whole entry): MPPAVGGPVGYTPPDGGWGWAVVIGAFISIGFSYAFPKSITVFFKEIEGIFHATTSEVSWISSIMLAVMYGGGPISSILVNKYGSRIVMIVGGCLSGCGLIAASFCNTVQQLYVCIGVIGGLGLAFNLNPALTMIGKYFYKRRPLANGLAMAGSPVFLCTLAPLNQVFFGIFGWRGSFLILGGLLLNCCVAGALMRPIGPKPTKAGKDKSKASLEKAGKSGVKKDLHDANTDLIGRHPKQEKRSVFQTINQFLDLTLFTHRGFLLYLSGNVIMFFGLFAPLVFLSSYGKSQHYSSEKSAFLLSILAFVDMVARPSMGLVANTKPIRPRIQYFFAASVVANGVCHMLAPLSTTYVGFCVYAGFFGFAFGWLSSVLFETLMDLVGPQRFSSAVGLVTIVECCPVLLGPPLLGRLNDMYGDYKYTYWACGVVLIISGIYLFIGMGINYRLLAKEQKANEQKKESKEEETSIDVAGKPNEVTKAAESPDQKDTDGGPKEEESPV
Nature of the test: Displacement of [3H]5-[(3-hydroxypropyl)thio]-3-methyl-1-[2-(methyl-t)propyl-2,3-t2]-6-(1-naphthalenylmethyl)-1H-pyrrolo[3,4-d]pyrimidine-2,4(3H,6H)-dione from MCT1 in human Jurkat cell membranes. In general terms: Displacement assays read how much labelled ligand stays bound in the presence of the test substance.

Test [6] addresses T1, Monocarboxylate transporter 1. Nature of the test: Displacement of [3H]5-[(3-hydroxypropyl)thio]-3-methyl-1-[2-(methyl-t)propyl-2,3-t2]-6-(1-naphthalenylmethyl)-1H-pyrrolo[3,4-d]pyrimidine-2,4(3H,6H)-dione from human MCT1 expressed in INS1 cell membrane. It is filed as cell membranes.
Test [7] deals with PBMC. Nature of the test: Antiproliferative activity against human PBMC assessed as inhibition of PMA/ionomycin-stimulated cell proliferation by [3H]thymidine incorporation assay. In kind it is functional, cell-based.
Test [8] relates to T-cell. Briefly: Antiproliferative activity against human T cells assessed as inhibition of PMA-ionomycin stimulated cell proliferation by [3H]thymidine incorporation assay. It is filed as functional, cell-based.
The subject of test [9] is T-cell. Nature of the test: Antiproliferative activity against Lewis rat T cells assessed as inhibition of PMA-ionomycin stimulated cell proliferation by [3H]thymidine incorporation assay. It is filed as functional, cell-based.
Test [10] relates to Rattus norvegicus. Nature of the test: Inhibition of graft-versus-host response-induced lymph node expansion in DA/Lewis recipient rat administered once daily through subcutaneous route. To be noted: sc. It is filed as functional.
In test [11] the test system is T-cell. Nature of the test: Inhibition of conversion of [1,2-13C2]glucose into [2,3-13C2]lactate in PMA-ionomycin stimulated human T cells at 10 nM after 6 hrs by GC-MS method. It is filed as functional, cell-based.
Test [12] concerns the target T2, Monocarboxylate transporter 1 (Homo sapiens) (UniProt P53985).
T2 sequence (whole entry): T1 sequence (P53985 whole entry)
To be noted: INS1, 10 nM.

Test [13] concerns the target T3, Monocarboxylate transporter 1 (Rattus norvegicus) (UniProt P53987).
T3 sequence (whole entry): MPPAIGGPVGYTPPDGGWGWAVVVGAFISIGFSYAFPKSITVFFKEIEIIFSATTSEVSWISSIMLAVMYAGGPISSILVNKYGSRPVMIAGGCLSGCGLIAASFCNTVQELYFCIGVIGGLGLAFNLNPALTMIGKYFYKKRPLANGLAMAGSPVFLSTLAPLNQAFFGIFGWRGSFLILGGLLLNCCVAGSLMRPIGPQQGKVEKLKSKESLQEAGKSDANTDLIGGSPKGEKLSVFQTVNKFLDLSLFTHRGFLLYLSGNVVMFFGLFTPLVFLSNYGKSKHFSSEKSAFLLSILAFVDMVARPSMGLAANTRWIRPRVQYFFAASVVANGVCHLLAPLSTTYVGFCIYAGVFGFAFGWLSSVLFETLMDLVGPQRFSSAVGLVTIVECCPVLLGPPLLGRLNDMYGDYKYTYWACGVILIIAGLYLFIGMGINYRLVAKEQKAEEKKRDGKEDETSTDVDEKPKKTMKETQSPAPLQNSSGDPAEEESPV
Briefly: 6-[[4-azido-3-(iodo-125I)phenyl]methyl]-2,6-dihydro-2-methyl-4-(2-methylpropyl)-1H-pyrrolo[3,4-d]pyridazin-1-one from MCT1 in rat RBC ghost membranes at 1 uM by photoaffinity labeling study. It is filed as cell membranes.

Test [14] addresses T3, Monocarboxylate transporter 1 (Rattus norvegicus). Briefly: 6-[[4-azido-3-(iodo-125I)phenyl]methyl]-2,6-dihydro-2-methyl-4-(2-methylpropyl)-1H-pyrrolo[3,4-d]pyridazin-1-one from MCT1 in rat RBC membranes at 50 nM by photoaffinity labeling study. In kind it is cell membranes.

As a reminder, the IC50 is the concentration that gives 50% inhibition. Regarding `CC(C)Cn1c(=O)n(C)c(=O)c2c(C(=O)N3CC[C@@H](O)C3)c(Cc3c[nH]c4ccccc34)sc21`, the IC50 in test [1] is 3.31 nM; in test [2] it was 4.27 nM; in test [3] it was 1.55 nM; in test [4], 0.912 nM.

As for `CC(C)Cn1c(=O)n(C)c(=O)c2c(C(=O)N3CC=CC3)c(Cc3ccccc3C(F)(F)F)sc21`, the Ki in test [5] was 3.39 nM; in test [6] (read-out: pKi (converted)) it was 10.7 nM. The IC50 was 11.7 nM in [1], 10.2 nM in test [2], 4.79 nM in [3] and 12 nM in test [4].

Take `CC(C)Cn1c(=O)n(C)c(=O)c2cn(Cc3cccc4ccccc34)cc21`: the IC50 in [7] was 56.2 nM. The Ki in test [5] was 15.5 nM; in [6] (read-out: pKi (converted)) it was 46.8 nM.

Usually ED50 stands for the dose that gives a 50% effect, or the effect in half of the subjects. Read a low ED50 as greater potency. For `CC(C)Cc1nn(C)c(=O)c2c(SCCCO)n(Cc3cccc4ccccc34)cc12`, the inhibition entry in test [8], in test [9], in test [7], in test [11] and in test [12] was “Active” in each case. It took a dose of 5 mg/kg/day to reach the 50% effect level in [10] (ED50). Besides, the half-maximal inhibitory concentration (IC50) in [1] is 1.35 nM; in test [2], 0.794 nM; in [3] it was 0.55 nM; in [4], 0.38 nM.

Take `CC(C)Cn1c(=O)n(C)c(=O)c2c(SCCCO)n(Cc3cccc4ccccc34)cc21`: the inhibition result in test [8], in test [9], in [7] and in test [13] was “Active” each time. Besides, the IC50 in [7] was 2.45 nM.

With `CC(C)Cc1nn(C)c(=O)c2cn(Cc3ccc(N=[N+]=[N-])c([125I])c3)cc12`, the Ki in test [6] (read-out: Ki) was determined as 23 nM.

As to `CC(C)Cn1c(=O)[nH]c(=O)c2c(C(=O)N3CCC3)c(Cc3ccccc3C(F)(F)F)sc21`, in [7], the IC50 is over 1000 nM. Besides, the Ki in test [5] is over 200 nM. The inhibition result in test [14] was “Active”.

Turning to `CC(C)Cn1c(=O)n(C)c(=O)c2c(C(=O)N3CCCC3)c(Cc3ccccc3C(F)(F)F)sc21`, the IC50 in [1] was 10 nM; in [2], 5.37 nM; in test [3], 3.31 nM; in test [4], 2.88 nM.

On to `CC(C)Cn1c(=O)n(C)c(=O)c2c(SCCCO)c(Cc3ccccc3C(F)(F)F)sc21`, for which the IC50 in test [7] is 0.257 nM.

As to `CC(C)Cn1c(=O)n(C)c(=O)c2c(C(=O)N3CC[C@@H](O)C3)c(Cc3ccnc4ccccc34)sc21`, the IC50 in [1] was 9.77 nM; in [2] it was 11.5 nM; in test [3] it was 4.57 nM; in test [4], 3.24 nM.
